Assay results from ChEMBL document CHEMBL1201862, “PubChem BioAssay data set” (2004).
The source made the active and inactive calls.

What was measured:
DNA topoisomerase = DNA topoisomerase (Yersinia pestis, UniProt A0A2S9PM60); test: Y. pestis Topo-I inhibitors, cleavage product readout, dose response, biochemical, cherry-pick (AID 588525)
[1] = molecular target: T1, Type-1 angiotensin II receptor (Homo sapiens, UniProt P30556); test: AT1 receptor antagonists, dose response, selectivity assay for APJ receptor antagonist project, cell-based, uHTS hits (AID 463214); type: functional;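 also: antagonist potency against angiotensin II stimulated AT1 response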
T1 sequence (P30556 whole entry): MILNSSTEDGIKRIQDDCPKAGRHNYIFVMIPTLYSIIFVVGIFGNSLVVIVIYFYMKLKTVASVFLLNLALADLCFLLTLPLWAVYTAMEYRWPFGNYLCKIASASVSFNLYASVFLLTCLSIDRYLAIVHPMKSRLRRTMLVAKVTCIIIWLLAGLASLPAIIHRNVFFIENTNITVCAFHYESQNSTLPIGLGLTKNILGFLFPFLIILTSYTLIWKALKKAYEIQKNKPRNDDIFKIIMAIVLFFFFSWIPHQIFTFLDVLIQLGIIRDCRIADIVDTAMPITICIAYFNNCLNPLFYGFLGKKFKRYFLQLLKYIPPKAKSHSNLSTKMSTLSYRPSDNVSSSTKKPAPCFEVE

Beta-galactosidase = Beta-galactosidase (Escherichia coli, UniProt Q8VNN2); test: PubChem AID 485352; type: functional
[2] = molecular target: T2, Rac GTPase-activating protein 1 (Homo sapiens, UniProt Q9H0H5); test: MgcRacGAP GTPase-activating activity inhibitors, confirmation, biochemical, ADP Hunter fluorescence, primary and confirmatory (AID 624330); type: functional
T2 sequence (Q9H0H5 whole entry): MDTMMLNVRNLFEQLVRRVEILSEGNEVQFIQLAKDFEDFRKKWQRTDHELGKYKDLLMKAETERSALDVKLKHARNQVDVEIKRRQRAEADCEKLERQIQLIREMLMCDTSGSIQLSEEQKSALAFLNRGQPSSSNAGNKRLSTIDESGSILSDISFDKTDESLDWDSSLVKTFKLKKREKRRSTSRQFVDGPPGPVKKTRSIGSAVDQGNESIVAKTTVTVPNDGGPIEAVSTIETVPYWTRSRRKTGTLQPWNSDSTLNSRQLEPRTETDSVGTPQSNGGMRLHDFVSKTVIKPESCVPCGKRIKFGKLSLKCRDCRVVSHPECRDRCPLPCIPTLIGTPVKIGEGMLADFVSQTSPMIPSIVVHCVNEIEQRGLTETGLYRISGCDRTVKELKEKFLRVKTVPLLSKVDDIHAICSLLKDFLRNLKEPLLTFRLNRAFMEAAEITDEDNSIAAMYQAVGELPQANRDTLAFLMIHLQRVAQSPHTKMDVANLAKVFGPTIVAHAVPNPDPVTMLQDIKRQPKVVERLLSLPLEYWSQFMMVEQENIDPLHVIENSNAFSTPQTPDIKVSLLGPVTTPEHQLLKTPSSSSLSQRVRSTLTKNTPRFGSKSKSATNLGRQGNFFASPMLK

[3] = molecular target: T3, Zinc finger protein mex-5 (Caenorhabditis elegans, UniProt Q9XUB2); test: MEX-5/TCR-2 RNA interaction inhibitors, dose response, biochemical, C. elegans, fluorescence polarization (AID 1960)
T3 sequence (Q9XUB2 whole entry): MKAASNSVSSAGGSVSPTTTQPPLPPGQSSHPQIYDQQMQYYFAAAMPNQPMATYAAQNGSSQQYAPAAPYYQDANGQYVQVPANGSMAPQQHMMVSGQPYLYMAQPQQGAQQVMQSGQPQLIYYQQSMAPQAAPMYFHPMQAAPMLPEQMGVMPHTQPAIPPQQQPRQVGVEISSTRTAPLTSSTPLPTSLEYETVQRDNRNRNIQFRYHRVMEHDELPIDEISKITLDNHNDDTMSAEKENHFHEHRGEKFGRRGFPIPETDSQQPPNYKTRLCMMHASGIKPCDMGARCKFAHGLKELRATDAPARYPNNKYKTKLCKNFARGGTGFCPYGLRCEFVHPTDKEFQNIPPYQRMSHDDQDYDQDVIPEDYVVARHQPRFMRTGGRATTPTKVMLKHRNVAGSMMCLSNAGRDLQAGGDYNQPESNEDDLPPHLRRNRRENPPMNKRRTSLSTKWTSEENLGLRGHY

[4] = molecular target: T4, Polyadenylate-binding protein 1 (Homo sapiens, UniProt P11940); test: PABP1 MLLE–PAM2 binding inhibitor potency, dose response, biochemical, fluorescence polarization, FITC-PAM2 peptide (AID 602259); type: functional; details: read-out: IC50_Mean
ORF 73 = ORF 73 (Human herpesvirus 8, UniProt O40947); test: inhibitors of C-LANA binding to LBS DNA, dose response, biochemical, fluorescence polarization, cherry-picked samples (AID 504725); set-up: species or system Human gammaherpesvirus 8;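 also: fluorescence polarization of a labeled DNA duplex reporting LANA DNA binding; potency is for inhibitors that block LANA binding to the DNA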
[5] = molecular target: T4, Polyadenylate-binding protein 1; test: PABP1 MLLE–PAM2 interaction inhibitors, dose response, miRNA deadenylation inhibitor project, biochemical, fluorescence polarization, Cy5-PAM2 peptide, secondary (AID 602260); type: functional; details: read-out: IC50_Mean
[6] = molecular target: T5, Small ubiquitin-related modifier 1 (Homo sapiens, UniProt P63165); test: inhibitors of SUMO1 peptide binding, dose response, biochemical, fluorescence polarization, uHTS hits (AID 624382); type: functional; details: read-out: IC50_Mean
Genome polyprotein = Genome polyprotein (dengue virus type 2, UniProt P29990); test: Dengue-2 NS5 methyltransferase inhibitors, primary screen, biochemical, confirmation dose response (AID 588689); type: functional
[7] = molecular target: T6, RNA-binding protein pos-1 (Caenorhabditis elegans, UniProt G5EF15); test: inhibitors of POS-1/mex-3 RNA binding, dose response, biochemical, fluorescence polarization (AID 1964);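 also: purified POS-1 fused to maltose binding protein made in E. coli; potency of compounds blocking POS-1 binding to fluorescent RNA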
T6 sequence (G5EF15 whole entry): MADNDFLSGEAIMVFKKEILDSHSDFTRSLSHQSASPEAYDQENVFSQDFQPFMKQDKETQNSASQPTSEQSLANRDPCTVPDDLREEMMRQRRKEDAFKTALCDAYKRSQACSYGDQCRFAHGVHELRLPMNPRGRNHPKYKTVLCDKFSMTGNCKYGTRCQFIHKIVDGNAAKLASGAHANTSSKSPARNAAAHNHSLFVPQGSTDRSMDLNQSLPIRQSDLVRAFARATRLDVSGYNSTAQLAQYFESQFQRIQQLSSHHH

[8] = molecular target: T5, Small ubiquitin-related modifier 1; test: inhibitors of SUMO1 partner interactions, dose response, biochemical, FRET (AID 624383); type: functional; details: read-out: IC50_Mean
Vero = Vero cell cytotoxicity, cytotoxicity control for flavivirus capping enzyme inhibitors (AID 588742); type: functional; details: Chlorocebus sabaeus
[9] = molecular target: Beta-adrenergic receptor kinase 1 (Homo sapiens, UniProt P25098); test: aptamer displacement from bead-bound GRK2 – biochemical, cherry pick 1, bead flow cytometry, dose response (AID 504500)
HEK293 [10] = test: SAR Analysis of small molecule inhibitors of T-cell specific antigen receptor-induced NF-kB activation in a HEK-293T cell line using a luminescence assay. [Related pubchem assays (depositor defined):AID435003, AID435012, AID489026]; type: functional, cell-based; details: Homo sapiens
[11] = molecular target: ATP-dependent molecular chaperone HSP82 (Candida albicans (strain WO-1) (Yeast), UniProt C4YTQ8); test: loss of DOC-induced GRE-beta-galactosidase reporter signal, dose response, Hsp90 inhibitor project, S. cerevisiae, luminescence (AID 2400); type: functional, cell-based;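 also: beta-galactosidase luminescence from glucocorticoid response element reporter as proxy for Hsp90 function; inhibitor potency where signal loss means Hsp90 inhibition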
[12] = molecular target: Heat shock protein HSP 90-alpha (Homo sapiens, UniProt P07900); type: functional, organism-based
[13] = HepG2 cell cytotoxicity, dose response, cytotoxicity control for Shn3 inhibitor project, CellTiter-Glo, cherry-picked (AID 624134); type: functional, cell-based
[14] = cytotoxicity toward NIH3T3 fibroblasts, dose response, counter-screen, cell-based, ATP luminescence, mouse fibroblasts (AID 2010); type: functional;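 also: cells exposed to compound for about 90 hours before reading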
[15] = Counterscreen for AddAB inhibitors: absorbance-based bacterial cell-based high throughput dose response assay for inhibitors of bacterial viability. [Related pubchem assays (depositor defined):AID435030, AID449728, AID449731, AID488942, AID488955, AID488956]; type: functional
[16] = Shn3 3'UTR reporter inhibitors, dose response, cell-based, Clone20 osteoblasts, firefly luciferase, cherry-picked (AID 624132); type: functional;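 also: firefly luciferase luminescence from reporter carrying the Shn3 3'UTR in osteoblasts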
HEK293 [17] = test: SAR Analysis of small molecule inhibitors of T-cell specific antigen receptor-induced NF-kB activation in a HEK-293T cell line using a luminescence assay - Set 2. [Related pubchem assays (depositor defined):AID435003, AID435012, AID489026]; type: functional, cell-based; details: Homo sapiens
Exodeoxyribonuclease V = Exodeoxyribonuclease V (Escherichia coli (strain K12), UniProt P04993+P07648+P08394); test: E. coli RecBCD inhibitors, dose response, counter-screen for AddAB inhibitor project, absorbance, V66 E. coli, mutant T4 phage (AID 492957); type: functional, cell-based, Escherichia coli str. K-12 substr. MG1655
Jurkat [18] = test: SAR Analysis of small molecule inhibitors of T-cell specific antigen receptor-induced NF-kB activation in a Jurkat cell line using a luminescence assay - Set 2. [Related pubchem assays (depositor defined):AID435003, AID435012, AID465]; type: functional, cell-based; details: Homo sapiens
[19] = C. albicans growth with fluconazole, confirmation, fluorescence, retest (AID 2467); type: functional, cell-based
[20] = control 3'UTR Renilla luciferase suppression, dose response, counter-screen for Shn3 inhibitor project, cell-based, Clone20-Shn3RL, cherry-picked (AID 624133); type: functional
cells [21] = type: functional, cell-based
INS1 = test: beta cell apoptosis inhibitors, cytokine rescue, dose response, luminescence, retest (AID 449756); type: functional, cell-based; details: Rattus norvegicus;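 also: cell death triggered by IL-1 beta plus TNF-alpha plus IFN-gamma mixture; protective hits raise ATP signal compared with cytokine alone wells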
HEK293 [22] = test: cytotoxicity in HEK293T NF-kB-Luc cells, SAR follow-up, cytotoxicity control for NF-kB activator project, cell-based, resazurin fluorescence (AID 493251); type: functional
[23] = inhibitors of intracellular T. cruzi replication, confirmation, NIH3T3 host cells, beta-gal luminescence (AID 2044); type: functional, cell-based;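 also: intracellular parasites grown in NIH/3T3 mouse fibroblasts as host cells; luminescent beta-galactosidase reporter signal from transgenic T. cruzi replicating inside host cells; inhibitors lower the luminescence signal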
Jurkat [24] = test: SAR Analysis of small molecule inhibitors of T-cell specific antigen receptor-induced NF-kB activation in a Jurkat cell line using a luminescence assay. [Related pubchem assays (depositor defined):AID435003, AID435012, AID465]; type: functional, cell-based; details: Homo sapiens
cells [25] = type: functional, cell-based; remark: listed apart in the source
[26] = molecular target: T7, Serine/threonine-protein phosphatase (Candida dubliniensis (strain CD36 / CBS 7987 / NCPF 3949 / NRRLY-17841) (Yeast), UniProt B9W6M3); test: calcineurin pathway inhibitors in yeast reporter, dose response, S. cerevisiae, CDRE-lacZ, luminescence, secondary (AID 2388); type: functional, cell-based;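 also: yeast reporter cells carrying a calcineurin-responsive lacZ construct stimulated with calcium chloride; luminescent beta-galactosidase reporter signal in whole cells rather than isolated phosphatase activity; potency for inhibition where a drop in reporter signal means calcineurin blockade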
T7 sequence (B9W6M3 whole entry): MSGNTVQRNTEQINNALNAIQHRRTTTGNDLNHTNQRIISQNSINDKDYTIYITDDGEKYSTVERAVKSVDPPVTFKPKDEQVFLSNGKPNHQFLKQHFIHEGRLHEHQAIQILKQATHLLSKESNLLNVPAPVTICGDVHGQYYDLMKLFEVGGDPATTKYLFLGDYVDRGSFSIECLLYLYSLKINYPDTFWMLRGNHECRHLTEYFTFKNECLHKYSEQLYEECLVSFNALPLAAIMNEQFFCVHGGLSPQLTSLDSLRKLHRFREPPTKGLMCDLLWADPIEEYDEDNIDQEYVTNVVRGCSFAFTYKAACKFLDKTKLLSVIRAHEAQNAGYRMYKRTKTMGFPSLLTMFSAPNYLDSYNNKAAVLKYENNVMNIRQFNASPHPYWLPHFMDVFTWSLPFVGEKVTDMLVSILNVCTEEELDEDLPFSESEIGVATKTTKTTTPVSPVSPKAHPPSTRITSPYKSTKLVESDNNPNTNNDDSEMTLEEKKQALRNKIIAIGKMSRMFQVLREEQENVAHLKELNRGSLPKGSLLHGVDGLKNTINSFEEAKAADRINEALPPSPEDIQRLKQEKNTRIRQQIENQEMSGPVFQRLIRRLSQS

Nonstructural protein 1 = Nonstructural protein 1 (Influenza A virus, UniProt Q194T2); type: functional, Influenza A virus (A/California/07/2009(H1N1))
[27] = NIH-3T3 fibroblast cytotoxicity, dose response, cytotoxicity control, cell-based, fluorescence, Alamar Blue, secondary assay (AID 2327); type: functional;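 also: NIH-3T3 mouse fibroblasts cultured with fluconazole at 8 µg/mL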

T5 sequence (P63165 whole entry): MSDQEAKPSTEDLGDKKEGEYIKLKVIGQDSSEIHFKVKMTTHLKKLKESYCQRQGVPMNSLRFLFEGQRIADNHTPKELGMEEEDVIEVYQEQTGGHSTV
T4 sequence (P11940 whole entry): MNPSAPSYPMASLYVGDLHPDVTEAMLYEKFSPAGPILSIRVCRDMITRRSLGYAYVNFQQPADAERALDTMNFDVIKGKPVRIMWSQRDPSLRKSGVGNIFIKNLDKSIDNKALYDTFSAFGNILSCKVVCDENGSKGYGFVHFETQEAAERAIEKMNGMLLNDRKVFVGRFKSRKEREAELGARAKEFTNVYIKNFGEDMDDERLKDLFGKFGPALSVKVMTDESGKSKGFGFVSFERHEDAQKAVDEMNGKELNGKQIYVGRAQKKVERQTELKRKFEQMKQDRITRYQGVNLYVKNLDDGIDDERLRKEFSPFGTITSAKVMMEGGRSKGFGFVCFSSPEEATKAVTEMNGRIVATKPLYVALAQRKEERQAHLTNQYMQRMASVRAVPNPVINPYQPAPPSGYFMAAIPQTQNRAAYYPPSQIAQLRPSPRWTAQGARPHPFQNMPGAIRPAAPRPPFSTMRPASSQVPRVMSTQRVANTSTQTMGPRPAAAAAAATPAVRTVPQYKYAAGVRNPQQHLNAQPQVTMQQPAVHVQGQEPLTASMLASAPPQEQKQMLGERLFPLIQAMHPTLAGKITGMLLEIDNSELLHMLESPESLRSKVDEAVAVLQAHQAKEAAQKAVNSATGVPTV
Chain of Genome polyprotein (P29990 2492-3391 limits assumed): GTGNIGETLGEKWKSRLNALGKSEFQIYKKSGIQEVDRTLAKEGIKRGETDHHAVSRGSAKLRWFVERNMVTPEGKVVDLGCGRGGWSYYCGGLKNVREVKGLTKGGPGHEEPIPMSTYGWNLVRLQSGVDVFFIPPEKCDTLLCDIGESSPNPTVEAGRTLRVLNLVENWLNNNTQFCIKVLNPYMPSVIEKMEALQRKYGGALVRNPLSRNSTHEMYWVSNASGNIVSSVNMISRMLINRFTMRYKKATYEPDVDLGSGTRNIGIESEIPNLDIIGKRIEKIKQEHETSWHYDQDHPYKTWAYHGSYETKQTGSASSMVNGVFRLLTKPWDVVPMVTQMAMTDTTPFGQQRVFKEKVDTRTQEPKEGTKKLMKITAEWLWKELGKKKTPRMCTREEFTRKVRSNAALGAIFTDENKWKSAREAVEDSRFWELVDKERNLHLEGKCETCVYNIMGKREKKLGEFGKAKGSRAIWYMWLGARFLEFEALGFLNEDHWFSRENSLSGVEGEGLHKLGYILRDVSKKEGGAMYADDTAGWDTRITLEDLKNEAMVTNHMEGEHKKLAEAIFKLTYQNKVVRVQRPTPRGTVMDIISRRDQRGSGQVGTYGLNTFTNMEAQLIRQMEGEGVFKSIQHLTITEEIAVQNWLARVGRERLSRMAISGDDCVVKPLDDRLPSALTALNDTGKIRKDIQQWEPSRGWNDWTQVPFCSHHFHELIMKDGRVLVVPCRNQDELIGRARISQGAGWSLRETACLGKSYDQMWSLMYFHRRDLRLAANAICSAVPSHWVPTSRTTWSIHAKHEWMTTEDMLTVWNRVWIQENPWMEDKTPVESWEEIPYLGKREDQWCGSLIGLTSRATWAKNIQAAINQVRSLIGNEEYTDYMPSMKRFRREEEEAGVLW
Chain of Beta-galactosidase (Q8VNN2 whole entry): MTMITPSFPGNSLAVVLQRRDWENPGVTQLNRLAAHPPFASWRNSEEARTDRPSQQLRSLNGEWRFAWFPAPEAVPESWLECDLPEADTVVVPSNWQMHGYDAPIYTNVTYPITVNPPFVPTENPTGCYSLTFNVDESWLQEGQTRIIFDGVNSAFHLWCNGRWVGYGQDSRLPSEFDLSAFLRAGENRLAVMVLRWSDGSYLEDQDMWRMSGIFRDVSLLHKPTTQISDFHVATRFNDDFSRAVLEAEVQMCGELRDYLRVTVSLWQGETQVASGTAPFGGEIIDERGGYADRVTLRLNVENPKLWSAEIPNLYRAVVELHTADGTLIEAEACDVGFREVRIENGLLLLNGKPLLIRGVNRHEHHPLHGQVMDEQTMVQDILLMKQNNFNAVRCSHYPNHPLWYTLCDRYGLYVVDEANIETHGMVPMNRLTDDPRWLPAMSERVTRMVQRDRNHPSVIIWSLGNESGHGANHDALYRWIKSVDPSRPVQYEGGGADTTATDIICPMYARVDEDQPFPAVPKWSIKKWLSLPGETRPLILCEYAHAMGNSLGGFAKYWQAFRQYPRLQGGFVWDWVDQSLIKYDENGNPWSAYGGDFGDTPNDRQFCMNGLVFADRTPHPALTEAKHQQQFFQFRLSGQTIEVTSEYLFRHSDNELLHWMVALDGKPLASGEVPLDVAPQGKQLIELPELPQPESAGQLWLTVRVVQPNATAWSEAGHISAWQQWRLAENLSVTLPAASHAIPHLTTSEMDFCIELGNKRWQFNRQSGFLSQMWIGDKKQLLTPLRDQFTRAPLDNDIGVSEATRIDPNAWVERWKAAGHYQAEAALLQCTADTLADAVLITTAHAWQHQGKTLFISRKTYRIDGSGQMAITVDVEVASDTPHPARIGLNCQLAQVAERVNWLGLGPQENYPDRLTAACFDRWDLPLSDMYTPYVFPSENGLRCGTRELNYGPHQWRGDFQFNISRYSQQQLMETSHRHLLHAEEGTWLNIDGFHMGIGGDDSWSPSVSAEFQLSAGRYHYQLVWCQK
Chain of Beta-adrenergic receptor kinase 1 (P25098 whole entry): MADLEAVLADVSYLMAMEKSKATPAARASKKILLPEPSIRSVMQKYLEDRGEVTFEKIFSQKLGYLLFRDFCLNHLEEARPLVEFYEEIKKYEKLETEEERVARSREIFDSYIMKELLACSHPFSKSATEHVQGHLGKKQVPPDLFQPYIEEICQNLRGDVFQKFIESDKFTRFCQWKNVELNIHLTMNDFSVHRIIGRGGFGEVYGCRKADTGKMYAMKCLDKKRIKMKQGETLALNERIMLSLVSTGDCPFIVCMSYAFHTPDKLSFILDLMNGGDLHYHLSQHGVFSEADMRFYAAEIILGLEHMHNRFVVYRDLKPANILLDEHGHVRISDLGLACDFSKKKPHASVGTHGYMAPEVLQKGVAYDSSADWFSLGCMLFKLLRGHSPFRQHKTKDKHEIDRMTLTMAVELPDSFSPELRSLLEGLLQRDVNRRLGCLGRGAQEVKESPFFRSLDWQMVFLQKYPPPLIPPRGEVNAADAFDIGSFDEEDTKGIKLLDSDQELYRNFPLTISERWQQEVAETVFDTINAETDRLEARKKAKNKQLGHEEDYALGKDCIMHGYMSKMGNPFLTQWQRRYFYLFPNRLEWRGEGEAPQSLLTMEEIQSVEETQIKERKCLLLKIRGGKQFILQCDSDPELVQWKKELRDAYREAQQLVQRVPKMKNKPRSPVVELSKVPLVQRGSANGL
Chain of Nonstructural protein 1 (Q194T2 whole entry): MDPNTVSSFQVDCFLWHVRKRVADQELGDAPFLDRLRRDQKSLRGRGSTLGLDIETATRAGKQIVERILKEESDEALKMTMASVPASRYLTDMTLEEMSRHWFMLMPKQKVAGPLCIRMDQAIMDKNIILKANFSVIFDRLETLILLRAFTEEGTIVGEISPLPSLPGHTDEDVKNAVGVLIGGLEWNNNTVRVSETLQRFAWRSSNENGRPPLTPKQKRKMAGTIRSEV
Chain of ATP-dependent molecular chaperone HSP82 (C4YTQ8 whole entry): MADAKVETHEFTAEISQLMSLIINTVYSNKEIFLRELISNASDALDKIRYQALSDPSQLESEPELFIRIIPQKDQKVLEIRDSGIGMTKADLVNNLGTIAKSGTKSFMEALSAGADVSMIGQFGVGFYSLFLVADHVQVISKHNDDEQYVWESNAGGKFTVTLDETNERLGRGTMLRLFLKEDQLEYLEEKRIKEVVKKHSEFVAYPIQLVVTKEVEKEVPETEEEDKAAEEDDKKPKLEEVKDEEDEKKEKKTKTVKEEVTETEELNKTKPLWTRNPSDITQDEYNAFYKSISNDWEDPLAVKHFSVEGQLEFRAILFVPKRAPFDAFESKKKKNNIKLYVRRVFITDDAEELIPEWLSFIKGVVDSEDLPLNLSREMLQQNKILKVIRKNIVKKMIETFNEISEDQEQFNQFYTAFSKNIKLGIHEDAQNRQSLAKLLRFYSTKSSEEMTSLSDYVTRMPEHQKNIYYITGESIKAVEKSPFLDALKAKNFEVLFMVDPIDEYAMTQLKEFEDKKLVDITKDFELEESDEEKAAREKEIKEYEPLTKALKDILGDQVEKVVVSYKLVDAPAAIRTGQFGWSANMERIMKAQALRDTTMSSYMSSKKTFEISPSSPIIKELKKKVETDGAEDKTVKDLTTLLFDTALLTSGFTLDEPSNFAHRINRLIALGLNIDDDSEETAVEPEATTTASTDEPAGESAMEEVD

## NC(=O)c1ccccc1NCC(=O)c1ccc(Cl)cc1
DNA topoisomerase
  AC50: 7.76 µM (active)
[1]
  IC50: 7.41 µM (active)
Beta-galactosidase
  EC50: > 40 µM (inactive)

## CCOC(=O)C1Nc2ccc(C(=O)O)cc2C2C=CCC12 (stereo unspecified)
[2]
  IC50: 305 µM (active)
[3]
  EC50: 20.3 µM (active)
[4]
  IC50: > 66 µM (inactive)
ORF 73
  AC50: 42.9 µM (active)
[5]
  IC50: > 66 µM (inactive)
[6]
  IC50: > 66.6 µM (inactive)
Genome polyprotein
  IC50: 44.9 µM (active)
[7]
  EC50: 38.9 µM (active)
[8]
  IC50: 39 µM (inactive)
Vero
  CC50: > 40 µM (active)

## CCCCCC(=O)Nc1cccc(C2=NOC3(C2)C[C@@H](C(N)=O)N(C(=O)c2ccc(OC)cc2)C3)c1 (stereo partly specified)
[9]
  EC50: 4.38 µM (active)

## CCCC(=O)NC(c1ccccc1)c1ccc2cccnc2c1O (stereo unspecified)
HEK293 [10]
  IC50: 7.31 µM (active)
[11]
  EC50: > 160 µM (inactive)
[12]
  AC50: 4.65 µM (active)
[13]
  AC50: 2.88 µM (active)
[14]
  EC50: 1.01 µM (active)
[15]
  IC50: > 119 µM (inactive)
[16]
  AC50: 1.99 µM (active)
HEK293 [17]
  IC50: 10.5 µM (active)
Exodeoxyribonuclease V
  IC50: > 119 µM (inactive)
Jurkat [18]
  IC50: 6.27 µM (active)
[19]
  EC50: 0.463 µM (active)
[20]
  AC50: 1.89 µM (active)
Cells [21]
  EC50: 6.78 µM (active)
INS1
  AC50: 0.664 µM (active)
HEK293 [22]; Homo sapiens, HEK293
  IC50: 13.6 µM (active)
HEK293 [22]; hek293
  IC50: 8.74 µM (active)
[23]
  EC50: 0.565 µM (active)
Jurkat [24]
  IC50: 3.81 µM (active)
Cells [25]
  EC50: > 350 µM (not active)
[26]
  EC50: > 180 µM (inactive)
Nonstructural protein 1
  IC50: 21.5 µM (active)
[27]
  EC50: 16.6 µM (inconclusive)
